From the NIST ThermoML archive (doi:10.1016/j.jct.2019.06.005)
± gives the expanded uncertainty stated by the source.

Assay: xn = mol fraction of the nth substance listed
Conditions: for surface tension liquid-gas: Maximal bubble pressure; for mass density: 100 kPa, Liquid, Vibrating tube method

COCC[n+]1ccn(C)c1.O=S(=O)([N-]S(=O)(=O)C(F)(F)F)C(F)(F)F + CCO
Conditions	mass density [kg/m3]	surface tension liquid-gas [mN/m]
288.15 K, x1 = 0.1003	1055.22 ± 6.7	24.8 ± 2.5
288.15 K, x1 = 0.2	1197.64 ± 7.6	25.9 ± 2.6
288.15 K, x1 = 0.2972	1285.52 ± 8.1	27.5 ± 2.8
288.15 K, x1 = 0.401	1350.45 ± 8.5	29.3 ± 2.9
288.15 K, x1 = 0.5028	1396.83 ± 8.7	31.5 ± 3.2
288.15 K, x1 = 0.5982	1430.26 ± 8.9	33.8 ± 3.4
288.15 K, x1 = 0.6973	1457.78 ± 9.1	35.8 ± 3.6
288.15 K, x1 = 0.8111	1483.2 ± 9.2	38.2 ± 3.8
288.15 K, x1 = 0.8991	1499.41 ± 9.3	39.7 ± 4
288.15 K, x1 = 1	1515.3 ± 9.4	41.4 ± 4.2
293.15 K, x1 = 0.1003	1050.42 ± 6.6	24.4 ± 2.4
293.15 K, x1 = 0.2	1192.63 ± 7.5	25.5 ± 2.6
293.15 K, x1 = 0.2972	1280.42 ± 8.1	27.1 ± 2.7
293.15 K, x1 = 0.401	1345.31 ± 8.4	29 ± 2.9
293.15 K, x1 = 0.5028	1391.67 ± 8.7	31.3 ± 3.1
293.15 K, x1 = 0.5982	1425.1 ± 8.9	33.5 ± 3.4
293.15 K, x1 = 0.6973	1452.62 ± 9	35.5 ± 3.6
293.15 K, x1 = 0.8111	1478.06 ± 9.2	38 ± 3.8
293.15 K, x1 = 0.8991	1494.28 ± 9.3	39.5 ± 4
293.15 K, x1 = 1	1510.15 ± 9.4	41.2 ± 4.1
298.15 K, x1 = 0.1003	1045.8 ± 6.6	23.9 ± 2.4
298.15 K, x1 = 0.2	1187.81 ± 7.5	25 ± 2.5
298.15 K, x1 = 0.2972	1275.51 ± 8	26.8 ± 2.7
298.15 K, x1 = 0.401	1340.28 ± 8.4	28.7 ± 2.9
298.15 K, x1 = 0.5028	1386.61 ± 8.7	31 ± 3.1
298.15 K, x1 = 0.5982	1420.05 ± 8.8	33.2 ± 3.3
298.15 K, x1 = 0.6973	1447.54 ± 9	35.3 ± 3.5
298.15 K, x1 = 0.8111	1472.95 ± 9.1	37.7 ± 3.8
298.15 K, x1 = 0.8991	1489.16 ± 9.2	39.2 ± 3.9
298.15 K, x1 = 1	1505.03 ± 9.4	41 ± 4.1
303.15 K, x1 = 0.1003	1040.76 ± 6.6	23.5 ± 2.4
303.15 K, x1 = 0.2	1182.58 ± 7.5	24.7 ± 2.5
303.15 K, x1 = 0.2972	1270.2 ± 8	26.5 ± 2.7
303.15 K, x1 = 0.401	1335.02 ± 8.4	28.4 ± 2.8
303.15 K, x1 = 0.5028	1381.37 ± 8.7	30.7 ± 3.1
303.15 K, x1 = 0.5982	1414.81 ± 8.8	33 ± 3.3
303.15 K, x1 = 0.6973	1442.35 ± 9	35 ± 3.5
303.15 K, x1 = 0.8111	1467.8 ± 9.1	37.5 ± 3.8
303.15 K, x1 = 0.8991	1484.03 ± 9.2	39 ± 3.9
303.15 K, x1 = 1	1499.92 ± 9.3	40.7 ± 4.1
308.15 K, x1 = 0.1003	1035.9 ± 6.5	23.1 ± 2.3
308.15 K, x1 = 0.2	1177.54 ± 7.4	24.4 ± 2.4
308.15 K, x1 = 0.2972	1265.09 ± 8	26.2 ± 2.6
308.15 K, x1 = 0.401	1329.88 ± 8.3	28.1 ± 2.8
308.15 K, x1 = 0.5028	1376.24 ± 8.6	30.4 ± 3
308.15 K, x1 = 0.5982	1409.68 ± 8.8	32.7 ± 3.3
308.15 K, x1 = 0.6973	1437.23 ± 8.9	34.8 ± 3.5
308.15 K, x1 = 0.8111	1462.7 ± 9.1	37.2 ± 3.7
308.15 K, x1 = 0.8991	1478.94 ± 9.2	38.8 ± 3.9
308.15 K, x1 = 1	1494.83 ± 9.3	40.5 ± 4.1
313.15 K, x1 = 0.1003	1031.02 ± 6.5	22.6 ± 2.3
313.15 K, x1 = 0.2	1172.49 ± 7.4	24 ± 2.4
313.15 K, x1 = 0.2972	1259.99 ± 7.9	25.8 ± 2.6
313.15 K, x1 = 0.401	1324.76 ± 8.3	27.8 ± 2.8
313.15 K, x1 = 0.5028	1371.12 ± 8.6	30.1 ± 3
313.15 K, x1 = 0.5982	1404.57 ± 8.7	32.5 ± 3.3
313.15 K, x1 = 0.6973	1432.14 ± 8.9	34.5 ± 3.5
313.15 K, x1 = 0.8111	1457.62 ± 9.1	37 ± 3.7
313.15 K, x1 = 0.8991	1473.87 ± 9.2	38.6 ± 3.9
313.15 K, x1 = 1	1489.77 ± 9.3	40.3 ± 4
318.15 K, x1 = 0.1003	1026.12 ± 6.5	22.3 ± 2.2
318.15 K, x1 = 0.2	1167.43 ± 7.4	23.7 ± 2.4
318.15 K, x1 = 0.2972	1254.88 ± 7.9	25.5 ± 2.6
318.15 K, x1 = 0.401	1319.64 ± 8.3	27.5 ± 2.8
318.15 K, x1 = 0.5028	1366.01 ± 8.6	29.9 ± 3
318.15 K, x1 = 0.5982	1399.48 ± 8.7	32.2 ± 3.2
318.15 K, x1 = 0.6973	1427.07 ± 8.9	34.3 ± 3.4
318.15 K, x1 = 0.8111	1452.56 ± 9	36.8 ± 3.7
318.15 K, x1 = 0.8991	1468.81 ± 9.1	38.3 ± 3.8
318.15 K, x1 = 1	1484.72 ± 9.2	40.1 ± 4

COCC[n+]1ccn(C)c1.O=S(=O)([N-]S(=O)(=O)C(F)(F)F)C(F)(F)F + CO
Conditions	mass density [kg/m3]	surface tension liquid-gas [mN/m]
288.15 K, x1 = 0.1004	1121.11 ± 7.1	26.6 ± 2.7
288.15 K, x1 = 0.2003	1263.18 ± 8	28.5 ± 2.9
288.15 K, x1 = 0.2814	1330.61 ± 8.3	29.6 ± 3
288.15 K, x1 = 0.4004	1394.19 ± 8.7	31.5 ± 3.2
288.15 K, x1 = 0.4987	1429.08 ± 8.9	33.1 ± 3.3
288.15 K, x1 = 0.5949	1454.46 ± 9	34.8 ± 3.5
288.15 K, x1 = 0.704	1476.43 ± 9.2	36.9 ± 3.7
288.15 K, x1 = 0.8042	1492.31 ± 9.3	38.6 ± 3.9
288.15 K, x1 = 0.9003	1504.71 ± 9.3	40.1 ± 4
288.15 K, x1 = 1	1515.3 ± 9.4	41.4 ± 4.2
293.15 K, x1 = 0.1004	1116 ± 7.1	26.2 ± 2.6
293.15 K, x1 = 0.2003	1257.97 ± 7.9	28.1 ± 2.8
293.15 K, x1 = 0.2814	1325.38 ± 8.3	29.3 ± 2.9
293.15 K, x1 = 0.4004	1388.96 ± 8.7	31.1 ± 3.1
293.15 K, x1 = 0.4987	1423.86 ± 8.9	32.8 ± 3.3
293.15 K, x1 = 0.5949	1449.25 ± 9	34.5 ± 3.5
293.15 K, x1 = 0.704	1471.24 ± 9.1	36.6 ± 3.7
293.15 K, x1 = 0.8042	1487.14 ± 9.2	38.3 ± 3.8
293.15 K, x1 = 0.9003	1499.56 ± 9.3	39.8 ± 4
293.15 K, x1 = 1	1510.15 ± 9.4	41.2 ± 4.1
298.15 K, x1 = 0.1004	1110.88 ± 7	25.7 ± 2.6
298.15 K, x1 = 0.2003	1252.76 ± 7.9	27.7 ± 2.8
298.15 K, x1 = 0.2814	1320.14 ± 8.3	28.9 ± 2.9
298.15 K, x1 = 0.4004	1383.74 ± 8.7	30.8 ± 3.1
298.15 K, x1 = 0.4987	1418.64 ± 8.8	32.5 ± 3.3
298.15 K, x1 = 0.5949	1444.06 ± 9	34.2 ± 3.4
298.15 K, x1 = 0.704	1466.08 ± 9.1	36.4 ± 3.6
298.15 K, x1 = 0.8042	1481.99 ± 9.2	38.1 ± 3.8
298.15 K, x1 = 0.9003	1494.42 ± 9.3	39.6 ± 4
298.15 K, x1 = 1	1505.03 ± 9.4	41 ± 4.1
303.15 K, x1 = 0.1004	1105.74 ± 7	25.2 ± 2.5
303.15 K, x1 = 0.2003	1247.54 ± 7.9	27.3 ± 2.7
303.15 K, x1 = 0.2814	1314.92 ± 8.2	28.6 ± 2.9
303.15 K, x1 = 0.4004	1378.52 ± 8.6	30.5 ± 3.1
303.15 K, x1 = 0.4987	1413.44 ± 8.8	32.2 ± 3.2
303.15 K, x1 = 0.5949	1438.88 ± 8.9	34 ± 3.4
303.15 K, x1 = 0.704	1460.92 ± 9.1	36.1 ± 3.6
303.15 K, x1 = 0.8042	1476.85 ± 9.2	37.8 ± 3.8
303.15 K, x1 = 0.9003	1489.3 ± 9.2	39.4 ± 4
303.15 K, x1 = 1	1499.92 ± 9.3	40.7 ± 4.1
308.15 K, x1 = 0.1004	1100.6 ± 7	24.6 ± 2.5
308.15 K, x1 = 0.2003	1242.33 ± 7.8	26.9 ± 2.7
308.15 K, x1 = 0.2814	1309.69 ± 8.2	28.2 ± 2.8
308.15 K, x1 = 0.4004	1373.31 ± 8.6	30.1 ± 3
308.15 K, x1 = 0.4987	1408.26 ± 8.8	31.9 ± 3.2
308.15 K, x1 = 0.5949	1433.72 ± 8.9	33.7 ± 3.4
308.15 K, x1 = 0.704	1455.77 ± 9	35.8 ± 3.6
308.15 K, x1 = 0.8042	1471.73 ± 9.1	37.6 ± 3.8
308.15 K, x1 = 0.9003	1484.2 ± 9.2	39.1 ± 3.9
308.15 K, x1 = 1	1494.83 ± 9.3	40.5 ± 4.1
313.15 K, x1 = 0.1004	1095.44 ± 6.9	24.2 ± 2.4
313.15 K, x1 = 0.2003	1237.11 ± 7.8	26.5 ± 2.7
313.15 K, x1 = 0.2814	1304.47 ± 8.2	27.8 ± 2.8
313.15 K, x1 = 0.4004	1368.12 ± 8.6	29.9 ± 3
313.15 K, x1 = 0.4987	1403.08 ± 8.8	31.6 ± 3.2
313.15 K, x1 = 0.5949	1428.57 ± 8.9	33.4 ± 3.3
313.15 K, x1 = 0.704	1450.64 ± 9	35.6 ± 3.6
313.15 K, x1 = 0.8042	1466.63 ± 9.1	37.4 ± 3.8
313.15 K, x1 = 0.9003	1479.12 ± 9.2	38.9 ± 3.9
313.15 K, x1 = 1	1489.77 ± 9.3	40.3 ± 4
318.15 K, x1 = 0.1004	1090.28 ± 6.9	23.8 ± 2.4
318.15 K, x1 = 0.2003	1231.89 ± 7.8	26.1 ± 2.6
318.15 K, x1 = 0.2814	1299.25 ± 8.1	27.5 ± 2.8
318.15 K, x1 = 0.4004	1362.93 ± 8.5	29.6 ± 3
318.15 K, x1 = 0.4987	1397.92 ± 8.7	31.4 ± 3.1
318.15 K, x1 = 0.5949	1423.44 ± 8.8	33.2 ± 3.3
318.15 K, x1 = 0.704	1445.47 ± 9	35.4 ± 3.5
318.15 K, x1 = 0.8042	1461.52 ± 9.1	37.1 ± 3.7
318.15 K, x1 = 0.9003	1474.06 ± 9.2	38.7 ± 3.9
318.15 K, x1 = 1	1484.72 ± 9.2	40.1 ± 4
